Reference: PMC6323635 (Journal of natural products, 2016)
“Also recorded” adds a separate entry of the source. Where two headings read alike, the source gives them in different places.

What was measured:
HCT 116 cells [1] = conditions: cited from earlier work
[2] = tested on: VEGF secretion in HCT 116 cells; experiment: VEGF ELISA; type: cell-based, human; conditions: for Hypoxia-induced VEGF secretion in HCT 116 cells: 48 h, 0.5% O2, concentrations active in HIF reporter assay
COLO 205 cells = experiment: CCK-8 cytotoxicity assay under hypoxic conditions; type: cell-based; conditions: for Cell death in COLO 205 cells: up to concentrations of 10 μM, hypoxia; for IC50: read-out: IC50 value (μM) ± SEM, COLO 205 (48 h, 0.5% O2), COLO 205, 48 h, 0.5% O2, CCK-8
[3] = tested on: HIF-1α transcriptional activity in HCT 116 cells; experiment: HIF reporter assay; type: cell-based
[4] = tested on: HIF-1α transcriptional activity in COLO 205 cells; experiment: HIF reporter assay; type: cell-based, human
HIF-1α/p300 = HIF-1α/p300 (Homo sapiens, UniProt Q09472); experiment: HIF-1α/p300 screening assay; type: binding
LNCaP cells = experiment: CCK-8 cytotoxicity assay under hypoxic conditions; type: cell-based, human; conditions: read-out: IC50 value (μM) ± SEM, LNCaP (18 h, 1% O2), 1% O2, CCK-8
HCT 116 cells [5] = experiment: CCK-8 cytotoxicity assay under hypoxic conditions; type: cell-based, human; conditions: 0.5% O2, CCK-8
[6] = tested on: HIF-1α transcriptional activity in LNCaP cells; experiment: HIF reporter assay; type: cell-based, human
[7] = tested on: VEGF secretion in LNCaP cells; experiment: VEGF ELISA; type: cell-based, human; conditions: 18 h, 1% O2
HCT 116 cells [8] = conditions: cited from earlier work; remark: listed apart in the source
[9] = tested on: ENO1, VEGF, and LDHA mRNA expression in PC3 prostate cancer cells; conditions: cited from earlier work
[10] = tested on: tumor growth in xenograft models; conditions: cited from earlier work
DNA topoisomerase II = conditions: cited from earlier work
[11] = read-out: IC50 value (μM) ± SD, HIF-1α/p300 screening assay, cell-free assay, ± SD
[12] = read-out: IC50 value (μM) ± SEM, HCT 116 (18 h, 0.5% O2), HCT 116, 18 h

Sequence of HIF-1α/p300 (Q09472 331-417 limits assumed): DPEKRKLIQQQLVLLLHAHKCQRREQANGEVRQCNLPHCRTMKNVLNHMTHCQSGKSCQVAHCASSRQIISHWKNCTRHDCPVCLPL

(+)-discorhabdin G*/I [compound 4]
IC50 values, cytotoxicity in HCT 116 cells (HCT 116 cells [1]): lower micromolar range

O=C1C=C(S[C@H]2[C@H]3C(=O)C=C4S[C@H]5C[C@]42C2=C(N5)C(=O)c4[nH]cc5c4C2=[N+]3CC5)[C@]2(C=C1Br)CCNC1=C2C2=NCCc3c[nH]c(c32)C1=O [compound 2, (−)-discorhabdin B dimer]
Trend in VEGF secretion in HCT 116 cells ([2]; 0.1–0.25 μM, 18 h and 48 h): statistically nonsignificant trend in the decrease
Hypoxia-induced VEGF secretion in HCT 116 cells [2]: none of these compounds significantly reduced
Cell death in COLO 205 cells (COLO 205 cells): did not cause substantial cell death
Effect on HIF-1α transcriptional (reporter) activity in HCT 116 cells ([3]; in words, 18 h, 0.5% O2): most potent at decreasing reporter activity
Concentrations causing significant inhibition of luciferase activity, COLO 205 ([4]; p < 0.05, 18 h, 0.5% O2): no effect

CN1C(=O)[C@]2(Cc3cn([C@]45C[C@@]67SS[C@@](CO)(C(=O)N6[C@H]4Nc4ccccc45)N(C)C7=O)c4ccccc34)SS[C@@]1(CO)C(=O)N2C [chetomin, reference compound]
IC50 (HIF-1α/p300): 1.9 ± 0.5 µM

(−)-discorhabdin W [compound 11]
Activity in the screening assay (HIF-1α/p300; in words): no activity
IC50 (HIF-1α/p300; [11]): > 100 µM
IC50 (LNCaP cells): > 10 µM
IC50 (COLO 205 cells): > 10 µM
Cell death in COLO 205 cells (COLO 205 cells): did not cause substantial cell death
IC50 (HCT 116 cells [5]; [12]): > 10 µM
Effect on HIF-1α transcriptional (reporter) activity in HCT 116 cells [3]: reduced HIF reporter activity
Activity in HIF reporter assay in LNCaP cells [6]: did not show activity
Concentrations causing significant inhibition of luciferase activity, LNCaP [6]: no effect
Concentrations causing significant inhibition of luciferase activity, COLO 205 [4]: no effect

(−)-discorhabdin H [compound 8]
IC50 (HIF-1α/p300; [11]): 2.2 ± 0.6 µM
IC50 (LNCaP cells): > 10 µM
Hypoxia-induced VEGF secretion in HCT 116 cells [2]: none of these compounds significantly reduced
IC50 (COLO 205 cells): > 10 µM
Cell death in COLO 205 cells (COLO 205 cells): did not cause substantial cell death
IC50 (HCT 116 cells [5]; [12]): > 10 µM
IC50 (HCT 116 cells [5]; read-out: IC50 value (μM) ± SEM, HCT 116 (48 h, 0.5% O2), HCT 116, 48 h): > 50 µM
Concentrations causing significant inhibition of luciferase activity, LNCaP ([6]; p < 0.05, 18 h, 1% O2, superscript a = >50% cell death in CCK-8 assay): 0.1 µM
Concentrations causing significant inhibition of luciferase activity, COLO 205 ([4]; p < 0.05, 18 h, 0.5% O2): no effect
VEGF secretion in LNCaP cells ([7]; 0.5 μM): significant decrease; also recorded: significantly decreased

CN1C(=O)[C@]23CC4=CC=C[C@H](O)[C@H]4N2C(=O)[C@@]1(CO)SS3 [gliotoxin]
Effects on HIF target mRNA expression in HCT 116 cells (HCT 116 cells [8]): no effects
ENO1, VEGF, and LDHA mRNA expression in PC3 prostate cancer cells [9]: lowered

O=C1CC2SC3CC2(C=C1Br)C1=C(N3)C(=O)c2[nH]cc3c2C1=NCC3 (single isomer, unassigned; (+)) [compound 6, (+)-discorhabdin A]
Tumor growth in xenograft models [10]: did not reduce tumor growth

O=C1C(NC2Cc3cc(Br)c(O)cc3S2)=CC2=NCCc3c[nH]c1c32 (single isomer, unassigned; (-)) [compound 5, (−)-makaluvamine F]
Cell death in COLO 205 cells (COLO 205 cells): did not cause substantial cell death
Inhibition of DNA topoisomerase II (DNA topoisomerase II): inhibit DNA topoisomerase II
Concentrations causing significant inhibition of luciferase activity, COLO 205 ([4]; p < 0.05, 18 h, 0.5% O2): no effect

O=C1C2=C3C4=[N+](CCc5c[nH]c1c54)[C@H]1C[C@@]34C[C@@H](N2)SC4=CC1=O [compound 7, (−)-discorhabdin D]
Antitumor activity in vivo [10]: the only reported discorhabdin with such activity

O=C1C2=C(C3=NCCc4c[nH]c1c43)[C@]1(C=C(Br)[C@H](O)C(Br)=C1)CCN2 [compound 3, 3-dihydrodiscorhabdin C]
IC50 values, cytotoxicity in HCT 116 cells (HCT 116 cells [1]): lower micromolar range
Concentrations causing significant inhibition of luciferase activity, COLO 205 ([4]; p < 0.05, 18 h, 0.5% O2): no effect

O=C1C2=C3C4=[N+](CCc5c[nH]c1c54)[C@@H]1C(=O)C=C4S[C@@H](C[C@@]43[C@H]1O)N2 [compound 9, (−)-discorhabdin L]
Hypoxia-induced VEGF secretion in HCT 116 cells [2]: none of these compounds significantly reduced
Concentrations causing significant inhibition of luciferase activity, COLO 205 ([4]; p < 0.05, 18 h, 0.5% O2): no effect
VEGF concentrations in LNCaP cells ([7]; 0.25–1 μM): borderline significant decrease

O=C1C=C2S[C@H]3C[C@]2(C=C1Br)C1=C(N3)C(=O)c2[nH]cc3c2C1=NCC3 [compound 1, (+)-discorhabdin B]
Tumor growth in xenograft models [10]: did not reduce tumor growth
Concentrations causing significant inhibition of luciferase activity, COLO 205 ([4]; p < 0.05, 18 h, 0.5% O2): no effect
